≈ marks a conversion by molar mass, not a printed value. Read-outs that look alike come from different tables or passages of the source. Residues, ends and D or L forms follow the SMILES beside them.
Tests used:
S. aureus GFP [1] = assay: MIC against planktonic cells, absorbance at 600 nm; format: cell-based, Staphylococcus aureus; settings: Table 4; Sa GFP, 10% TSB and 0.1% glucose; absorbance 600 nm; mean of three biological replicates
Procedure, shortened: (§1)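 GFP-expressing S. aureus, triplicate biological replicates. MIC on planktonic cells by absorbance at 600 nm. MBIC and MBEC from biofilm GFP fluorescence (480/530 nm), with untreated growth and media-only controls.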

P. aeruginosa PAO1 [2] = format: cell-based
Procedure, shortened: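 Peptides tested against P. aeruginosa PAO1 in 1× BM2 medium; planktonic growth read at 600 nm for MIC. Biofilm inhibition and eradication quantified by 0.1% crystal violet staining (15 min), ethanol release, absorbance at 595 nm, plus GFP-fluorescence and Calgary peg-device methods; triplicate means.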

S. aureus GFP [3] = assay: MBIC, GFP fluorescence method; format: cell-based, Staphylococcus aureus; settings: Table 4, Sa GFP, 10% TSB and 0.1% glucose, mean of three biological replicates
Procedure, shortened: as §1

P. aeruginosa PAO1 [4] = format: cell-based, Pseudomonas aeruginosa; settings: Table 5; regular PAO1 (no GFP), 1x BM2; absorbance 600 nm; mean of three biological replicates
Procedure, shortened: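 PAO1 tested with peptides in 1× BM2; planktonic growth read at 600 nm, biofilm quantified by 0.1% crystal violet staining (15 min), ethanol release and 595 nm reading, using a Calgary biofilm device. Values are means of three replicates with untreated-growth and medium-only controls.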

S. aureus GFP [5] = assay: MBEC, GFP fluorescence method; format: cell-based, Staphylococcus aureus; settings: Table 4, Sa GFP, 10% TSB and 0.1% glucose, mean of three biological replicates
Procedure, shortened: as §1

[6] = tested on: peripheral blood mononuclear cells (PBMCs); settings: cited from earlier work
Description: (§2) Overall, our work highlights the potential of […] analogs in comparison to related Trp-rich AMPs as potent antibiofilm peptides that can interfere in biofilms produced by P. aeruginosa and potentially other Gram-negative pathogenic bacteria. New antibiofilm agents are welcome for this organism, as P. aeruginosa is well-known to have numerous mechanisms to elude the action of antibiotics during biofilm formation. Various factors can influence the suitability of AMPs to act as bactericidal and antibiofilm peptides simultaneously (for a general discussion see, for example, [74]). One ...

red blood cells = settings: cited from earlier work
Description: as §2

P. aeruginosa PAO1 GFP [7] = assay: MBIC, prevention of biofilm formation, GFP fluorescence method; format: cell-based, Pseudomonas aeruginosa; settings: Table 2, BM2 medium, mean of three biological replicates
Procedure, shortened: (§3)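 GFP-expressing P. aeruginosa PAO1 exposed to peptides; planktonic MIC read by absorbance at 600 nm, while MBIC (prevention) and MBEC (eradication) used biofilm GFP fluorescence at 480/530 nm. Triplicate biological replicates averaged, with untreated growth and medium-only controls on each plate.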

S. aureus GFP [8] = format: cell-based, Staphylococcus aureus; settings: Table 4; Sa GFP; lowest concentration of peptide with no bacterial growth seen on the spot agar plate
P. aeruginosa PAO1 GFP [9] = assay: MBEC, biofilm eradication, GFP fluorescence method; format: cell-based, Pseudomonas aeruginosa; settings: Table 2, BM2 medium, mean of three biological replicates
Procedure, shortened: as §3

P. aeruginosa PAO1 GFP [10] = assay: MIC against planktonic cells, absorbance at 600 nm; format: cell-based, Pseudomonas aeruginosa; settings: Table 2, BM2 medium, absorbance 600 nm, mean of three biological replicates
Procedure, shortened: as §3

P. aeruginosa PAO1 [11] = format: cell-based, Pseudomonas aeruginosa; settings: Table 5; PAO1, 1x BM2; biofilms on pegs, cells plated and counted; three biological replicates
Procedure, shortened: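 Biofilm eradication (MBEC) for peptides against P. aeruginosa PAO1 in 1× BM2 medium, from counts of biofilm cells; GFP-producing strain fluorescence, crystal violet staining and Calgary peg device also used. Three biological replicates, mean ± SD, with untreated growth and medium-only controls.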

[12] = Table 5, PAO1, 1x BM2, crystal violet at 595 nm, mean of three biological replicates
[13] = Table 5, minimum biofilm reduction concentration, PAO1, 1x BM2, crystal violet at 595 nm, mean of three biological replicates

Row | Molecule | MIC at 600 nm LD50 (S. aureus GFP [1]) | MIC at 600 nm LD90 (S. aureus GFP [1]) | MBRC (CV at 595 nm) LD50 (P. aeruginosa PAO1 [2]; PAO1) | MBIC (CV at 595 nm) LD90 (P. aeruginosa PAO1 [2]; [12]) | MBRC (CV at 595 nm) LD90 (P. aeruginosa PAO1 [2]; [13]) | MBIC at 488 and 530 nm LD50 (S. aureus GFP [3]) | MBIC at 488 and 530 nm LD90 (S. aureus GFP [3]) | MIC at 600 nm LD50 (P. aeruginosa PAO1 [4]) | MIC at 600 nm LD90 (P. aeruginosa PAO1 [4]) | MBEC at 488 and 530 nm LD50 (S. aureus GFP [5]) | MBEC at 488 and 530 nm LD90 (S. aureus GFP [5]) | MBIC at 488 and 530 nm LD50 (P. aeruginosa PAO1 GFP [7]) | MBIC at 488 and 530 nm LD90 (P. aeruginosa PAO1 GFP [7]) | MBC Agar Plate (S. aureus GFP [8]) | MBEC at 488 and 530 nm LD50 (P. aeruginosa PAO1 GFP [9]) | MBEC at 488 and 530 nm LD90 (P. aeruginosa PAO1 GFP [9]) | MIC at 600 nm LD50 (P. aeruginosa PAO1 GFP [10]) | MIC at 600 nm LD90 (P. aeruginosa PAO1 GFP [10]) | MBEC from Calgary Biofilm Device (CBD) LD50 (P. aeruginosa PAO1 [11]) | MBEC from Calgary Biofilm Device (CBD) LD90 (P. aeruginosa PAO1 [11]) | other results
1 | CC(C)C[C@H](NC(=O)[C@H](Cc1ccccc1)NC(=O)[C@H](C)NC(=O)[C@H](Cc1c[nH]c2ccccc12)NC(=O)[C@H](Cc1c[nH]c2ccccc12)NC(=O)[C@H](Cc1c[nH]c2ccccc12)NC(=O)[C@H](C)NC(=O)[C@H](Cc1ccccc1)NC(=O)[C@H](CCCNC(=N)N)NC(=O)[C@H](CCCNC(=N)N)NC(=O)[C@@H](N)C(C)C)C(=O)N[C@@H](CCCNC(=N)N)C(=O)N[C@@H](CCCNC(=N)N)C(N)=O [Tritrp-P59A] (H-VRRFAWWWAFLRR-NH2) | 1 µM (≈ 1.85 µg/mL) | 2 µM (≈ 3.7 µg/mL) | 32 µmol/L | 4 µmol/L | 32 µmol/L | 2 µmol/L | 2 µmol/L | 2 µM (≈ 3.7 µg/mL) | 4 µM (≈ 7.4 µg/mL) | 1 µmol/L | 2 µmol/L | 2 µmol/L | 4 µmol/L | 4 µM (≈ 7.4 µg/mL) | 8 µmol/L | 16 µmol/L | 2 µM (≈ 3.7 µg/mL) | 4 µM (≈ 7.4 µg/mL) | 16 µmol/L | 32 µmol/L | MBIC (CV at 595 nm) LD50 (P. aeruginosa PAO1 [2]; PAO1): 4 µmol/L; cytotoxicity activities against PBMCs [6]: quite strong; hemolytic activity (red blood cells): relatively strong
2 | CC(C)C[C@H](NC(=O)[C@H](Cc1ccccc1)NC(=O)[C@@H]1CCCN1C(=O)[C@H](Cc1ccc(O)cc1)NC(=O)[C@H](Cc1ccc(O)cc1)NC(=O)[C@H](Cc1ccc(O)cc1)NC(=O)[C@@H]1CCCN1C(=O)[C@H](Cc1ccccc1)NC(=O)[C@H](CCCNC(=N)N)NC(=O)[C@H](CCCNC(=N)N)NC(=O)[C@@H](N)C(C)C)C(=O)N[C@@H](CCCNC(=N)N)C(=O)N[C@@H](CCCNC(=N)N)C(N)=O [Tritrp-W678Y] (H-VRRFPYYYPFLRR-NH2) | 1 µM (≈ 1.83 µg/mL) | 2 µM (≈ 3.66 µg/mL) | 128 µmol/L | >64 µmol/L | >128 µmol/L | 1 µmol/L | 2 µmol/L | >64 µM | >64 µM | 2 µmol/L | 8 µmol/L | >64 µmol/L | >64 µmol/L | 16 µM (≈ 29.3 µg/mL) | >128 µmol/L | >128 µmol/L | >64 µM | >64 µM | >128 µmol/L | >128 µmol/L | MBIC (CV at 595 nm) LD50 (P. aeruginosa PAO1 [2]; [12]): >64 µmol/L
3 | VRRFP(hW)(hW)(hW)PFLRR-NH2 [Tritrp-W678hW, Tritrp analog with hydroxy-Trp in place of the three Trp] | 2 µM | 4 µM | – | >64 µmol/L | >128 µmol/L | 2 µmol/L | 4 µmol/L | >64 µM | >64 µM | 4 µmol/L | 8 µmol/L | 16 µmol/L | 64 µmol/L | 16 µM | >128 µmol/L | >128 µmol/L | 32 µM | 64 µM | >128 µmol/L | >128 µmol/L | MBIC (CV at 595 nm) LD50 (P. aeruginosa PAO1 [2]; [12]): 32 µmol/L; MBRC (CV at 595 nm) LD50 (P. aeruginosa PAO1 [2]; [13]): >128 µmol/L
